Measurements taken from ChEMBL document CHEMBL5154700, “Discovery of Gut-Restricted Small-Molecule Inhibitors of Intestinal Sodium-Dependent Phosphate Transport Protein 2b (NaPi2b) for the Treatment of Hyperphosphatemia” (J Med Chem, 2022).
Converted amounts (≈) assume the structure as drawn.

Legend:
[1] = target: T1, Sodium-dependent phosphate transport protein 2B (Homo sapiens, UniProt O95436); assay: Inhibition of human NaPi2b expressed in KJMGER8 cells assessed as reduction in H2[33P]O4 uptake incubated for 60 mins by TopCount scintillation counting method; format: cell-based
T1 sequence (O95436 whole entry): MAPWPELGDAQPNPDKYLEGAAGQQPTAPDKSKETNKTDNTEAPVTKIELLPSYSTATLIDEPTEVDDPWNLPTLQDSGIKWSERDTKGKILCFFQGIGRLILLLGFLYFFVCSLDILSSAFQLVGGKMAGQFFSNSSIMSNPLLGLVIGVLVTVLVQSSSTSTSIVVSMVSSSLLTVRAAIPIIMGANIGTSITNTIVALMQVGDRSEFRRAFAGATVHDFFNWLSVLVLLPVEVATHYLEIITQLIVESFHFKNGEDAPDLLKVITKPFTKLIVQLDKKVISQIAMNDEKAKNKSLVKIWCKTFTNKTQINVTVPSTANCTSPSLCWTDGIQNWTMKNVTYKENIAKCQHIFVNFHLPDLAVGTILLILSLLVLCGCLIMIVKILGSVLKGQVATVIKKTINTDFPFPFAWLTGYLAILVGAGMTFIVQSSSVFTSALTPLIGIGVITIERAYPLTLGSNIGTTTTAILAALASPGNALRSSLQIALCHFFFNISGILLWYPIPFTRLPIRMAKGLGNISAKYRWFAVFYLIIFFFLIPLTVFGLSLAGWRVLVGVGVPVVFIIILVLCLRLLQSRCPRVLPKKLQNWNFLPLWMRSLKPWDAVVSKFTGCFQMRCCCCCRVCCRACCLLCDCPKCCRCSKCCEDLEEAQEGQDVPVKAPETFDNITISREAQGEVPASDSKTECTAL

[2] = Passive permeability of the compound across apical to basolateral at 100 uM incubated for 5 hrs by PAMPA assay; format: ADME; conditions: read-out: permeability
[3] = Solubility of compound in phosphate buffer at pH 7.4; format: physicochemical
[4] = Ratio of drug level in lung to plasma in CRL:CD(SD) rat at 30 mg/kg, po measured after 7 hrs by LC-MS/MS; format: ADME, organism-based; conditions: lung and plasma
[5] = Cmax in CRL:CD(SD) rat at 30 mg/kg, po measured after 7 hrs by LC-MS/MS analysis; format: ADME, organism-based; parameters: dose 30 mg/kg, time 7 hrs, route po; conditions: in vivo
[6] = Mean residence time in CRL:CD(SD) rat at 30 mg/kg, po measured after 7 hrs by LC-MS/MS analysis; format: ADME, organism-based; conditions: in vivo
[7] = Drug concentration in CRL:CD(SD) rat lung at 30 mg/kg, po measured after 7 hrs by LC-MS/MS analysis; format: ADME, organism-based; conditions: read-out: Ct
[8] = Inhibition of phosphate uptake in CRL:CD(SD) rat small intestine in at 0.1 mg treated through intrajejunal after 30 mins by In-situ closed-loop method; conditions: in vivo, other, 0.5 h
[9] = Half life in CRL:CD(SD) rat at 30 mg/kg, po measured after 7 hrs by LC-MS/MS analysis; format: ADME, organism-based; conditions: in vivo
[10] = AUC(0 to infinity) in CRL:CD(SD) rat at 30 mg/kg, po measured after 7 hrs by LC-MS/MS analysis; format: ADME, organism-based; parameters: dose 30 mg/kg, time 7 hrs, route po; conditions: in vivo
[11] = Drug concentration in CRL:CD(SD) rat plasma at 30 mg/kg, po measured after 7 hrs by LC-MS/MS analysis; format: ADME, organism-based
[12] = Oral bioavailability in CRL:CD(SD) rat at 30 mg/kg measured after 7 hrs by LC-MS/MS analysis; format: ADME, organism-based; conditions: in vivo
[13] = AUC (0 to t) in CRL:CD(SD) rat at 30 mg/kg, po measured after 7 hrs by LC-MS/MS analysis; format: ADME, organism-based; parameters: time 7 hrs, dose 30 mg/kg, route po; conditions: in vivo
[14] = Drug concentration in CRL:CD(SD) rat plasma at 30 mg/kg, po measured after 6 hrs by LC-MS/MS analysis; format: ADME, organism-based
[15] = AUC (0 to t) in CRL:CD(SD) rat at 10 mg/kg, po by LC-MS/MS analysis; format: ADME, organism-based; parameters: dose 10 mg/kg, route po; conditions: in vivo
[16] = Cmax in CRL:CD(SD) rat at 10 mg/kg, po by LC-MS/MS analysis; format: ADME, organism-based; parameters: dose 10 mg/kg, route po; conditions: in vivo
[17] = Oral bioavailability in CRL:CD(SD) rat at 10 mg/kg by LC-MS/MS analysis; format: ADME, organism-based; conditions: in vivo
[18] = Drug concentration in CRL:CD(SD) rat lung at 30 mg/kg, po measured after 6 hrs by LC-MS/MS analysis; format: ADME, organism-based; conditions: read-out: Ct

Row | IC50 [1] [µM] | Papp at 5 h, 100 µM [2] [nm/s] | solubility [3] [µM] | Kp at 7 h [4] | SMILES | also measured
1 | 0.315 | 2.3 | 82 (≈ 61.5 µg/mL) | – | CCN(CC)CCOCCOCCOc1cccc(C(=O)Nc2sc3c(c2C(=O)N/N=C/c2ccc(Cl)c(C(F)(F)F)c2)CCN(C2CC2)C3)c1 | –
2 | – | – | – | 428 | CCN(CC)C[C@@H](O)COCCOCCOCCOc1cccc(C(=O)Nc2sc3c(c2C(=O)N/N=C/c2ccc(Cl)c(C(F)(F)F)c2)CCC(C)(C)C3)c1 | –
3 | 0.064 | < 0.25 | 122 (≈ 115 µg/mL) | – | COCCN(CCOCCOCCOCCOCCOCCOCc1cccc(C(=O)Nc2sc3c(c2C(=O)N/N=C/c2ccc(Cl)c(C(F)(F)F)c2)CCC(C)(C)C3)c1)CC(=O)O | Cmax [5]: 0.444 ng/mL; MRT [6]: 5.25 h; concentration at 7 h [7]: < 1.5 ng/g; inhibition (INH) [8]: 17%; half-life [9]: 3.53 h; AUC(0-inf) [10]: 2.62 ng·h/mL; concentration at 7 h [11]: < 0.3 ng/mL; bioavailability [12]: 0.1%; AUC(0-t) at 7 h [13]: 0.665 ng·h/mL
4 | – | – | – | – | CCN(CC)CCCN(C)Cc1cccc(C(=O)Nc2sc3c(c2C(=O)N/N=C/c2ccc(Cl)c(C(F)(F)F)c2)CCN(C2CC2)C3)c1 | concentration at 6 h [14]: 1.86 ng/mL; AUC(0-t) [15]: 10.4 ng·h/mL; Cmax [16]: 3.59 ng/mL; bioavailability [17]: 0.96%; concentration at 6 h [18]: 6350 ng/g
5 | 0.083 | – | 76 (≈ 64.1 µg/mL) | 44 | CC1(C)CCc2c(sc(NC(=O)c3cccc(OCCOCCOCCOC[C@H](O)CN(CCO)CCO)c3)c2C(=O)N/N=C/c2ccc(Cl)c(C(F)(F)F)c2)C1 | –
6 | 0.04 | < 0.25 | 55 (≈ 40.6 µg/mL) | 130 | CCN(CC)CCOCCOCCOc1cccc(C(=O)Nc2sc3c(c2C(=O)N/N=C/c2ccc(Cl)c(C(F)(F)F)c2)CCC(C)(C)C3)c1 | –
7 | 0.087 | – | 0.1 (≈ 0.0619 µg/mL) | – | O=C(Nc1sc2c(c1C(=O)N/N=C/c1ccc(Cl)c(C(F)(F)F)c1)CCCC2)c1cccc(CN2CCC(O)CC2)c1 | –
